The assay addresses T1, GPR120 (Homo sapiens, UniProt Q5NUL3).
T1 construct: expressed in transfected cells; host or cells: CHO mitoPhotinaGPR120 cells
T1 sequence (Q5NUL3 1-361): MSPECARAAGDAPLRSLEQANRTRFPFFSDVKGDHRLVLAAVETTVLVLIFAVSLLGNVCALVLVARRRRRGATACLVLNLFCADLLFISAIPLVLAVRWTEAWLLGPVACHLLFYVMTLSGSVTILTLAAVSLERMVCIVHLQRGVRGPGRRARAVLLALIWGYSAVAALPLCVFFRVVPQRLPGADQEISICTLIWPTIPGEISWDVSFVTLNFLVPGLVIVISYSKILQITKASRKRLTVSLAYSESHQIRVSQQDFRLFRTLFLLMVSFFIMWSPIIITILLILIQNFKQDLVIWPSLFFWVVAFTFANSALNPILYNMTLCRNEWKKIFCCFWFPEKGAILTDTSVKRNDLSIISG
The assay can be described thus: GPR120 agonism in CHO mitoPhotinaGPR120 cell based assay with fluorescent (Fluo-8 calcium, FLIPRTetra) readout, Agonist Mode, dose response. Particulars: CHO mitoPhotinaGPR120 cells, Fluo-8 No Wash Ca2+ dye, dose response in quadruplicate, 0.0033% fatty acid free BSA. Here is the method: Compounds of the invention were tested for GPR120 agonism in a CHO mitoPhotinaGPR120 cell based assay with fluorescent readout in Agonist Mode in dose response in quadruplicate with intra-plate modality.
Twenty (20) h after seeding, growth medium was manually removed and cells were starved in the presence of 25 μL/w of Standard Tyrode's Buffer. After 3 h, cells were loaded with 20 μL/w of 0.5× Fluo-8 No Wash (AAT Bioquest, Inc.) Ca2+ sensitive dye prepared in Standard Tyrode's Buffer. Cells were incubated for 1 h at room temperature in the dark. Ten (10) μL/w 3× of controls and compounds were diluted in Standard Tyrode's Buffer+0.01% fatty acid free BSA (final concentration=0.0033%) and injected at the FLIPRTetra®, recording the kinetic calcium traces for 3 minutes. Standard Tyrode's buffer composition: 5 mM KCl, 130 mM NaCl, 2 mM CaCl2), 5 mM NaHCO3, 1 mM MgCl2, 20 mM HEPES, pH7.4.

`Cc1nn(-c2ccccc2)c(COc2c(F)cc(CC(C)CO)cc2F)c1C#N` (racemic) [Example 43, 5-[[2,6-difluoro-4-(3-hydroxy-2-methyl-propyl)phenoxy]methyl]-3-methyl-1-phenyl-pyrazole-4-carbonitrile]: the EC50 – broadly, the concentration at which the effect is half-maximal – is 0.45 µM. In the case of `Cc1nn(-c2ccccc2)c(COc2ccc(CCC(C)O)cc2)c1C#N` (racemic) [Example 47, 5-[[4-(3-hydroxybutyl)phenoxy]methyl]-3-methyl-1-phenyl-pyrazole-4-carbonitrile], the EC50 turned out to be 1.65 µM. For `Cc1nn(-c2ccccc2)c(COc2c(F)cc(CC(C)CO)cc2F)c1C#N` (single isomer, unassigned; (+)) [Example 43A, (+)-5-[[2,6-difluoro-4-(3-hydroxy-2-methyl-propyl)phenoxy]methyl]-3-methyl-1-phenyl-pyrazole-4-carbonitrile], the EC50 worked out at 0.34 µM. As to `Cc1nn(-c2ccccc2)c(COc2c(F)cc(CC(C)CO)cc2F)c1C#N` (single isomer, unassigned; (+)) [Example 43B, (+)-5-[[2,6-difluoro-4-(3-hydroxy-2-methyl-propyl)phenoxy]methyl]-3-methyl-1-phenyl-pyrazole-4-carbonitrile], the EC50 was determined as 1.69 µM.

On to `Cc1nn(-c2ccccc2)c(COc2ccc(CCC(C)O)cc2)c1C#N` (single isomer, unassigned; (+)) [Example 47A, (+)-5-[[4-(3-hydroxybutyl)phenoxy]methyl]-3-methyl-1-phenyl-pyrazole-4-carbonitrile], for which the EC50 stood at 0.5 µM. Take `Cc1nn(-c2ccccc2)c(COc2ccc(CCC(C)O)cc2)c1C#N` (single isomer, unassigned; (-)) [Example 47B, (−)-5-[[4-(3-hydroxybutyl)phenoxy]methyl]-3-methyl-1-phenyl-pyrazole-4-carbonitrile]: the 50% effective concentration (EC50) amounted to 2.36 µM. Consider `Cc1nn(-c2ccccc2)c(COc2ccc(C#N)cc2)c1C#N` [Example 1, 5-[(4-cyanophenoxy)methyl]-3-methyl-1-phenyl-pyrazole-4-carbonitrile], for which the EC50 came to 1.29 µM. With `Cc1nn(-c2ccccc2)c(COc2ccc(CO)cc2Cl)c1C#N` [Example 2, 5-[[2-chloro-4-(hydroxymethyl)phenoxy]methyl]-3-methyl-1-phenyl-pyrazole-4-carbonitrile], the EC50 is 1.24 µM.

As for `COc1ccc(OCc2c(C#N)c(C)nn2-c2ccccc2)cc1` [Example 3, 5-[(4-methoxyphenoxy)methyl]-3-methyl-1-phenyl-pyrazole-4-carbonitrile], the EC50 stood at 1.31 µM. On to `Cc1ccc(OCc2c(C#N)c(C)nn2-c2ccccc2)cc1` [Example 4, 3-methyl-5-[(4-methylphenoxy)methyl]-1-phenyl-pyrazole-4-carbonitrile], for which the EC50 stood at 1.67 µM. Turning to `Cc1nn(-c2ccccc2)c(COc2ccc(CO)cc2)c1C#N` [Example 5, 5-[[4-(hydroxymethyl)phenoxy]methyl]-3-methyl-1-phenyl-pyrazole-4-carbonitrile], the EC50 came out at 2.31 µM. Take `Cc1nn(-c2ccccc2)c(COc2ccc(CCO)cc2)c1C#N` [Example 6, 5-[[4-(2-hydroxyethyl)phenoxy]methyl]-3-methyl-1-phenyl-pyrazole-4-carbonitrile]: the EC50 was determined as 1.1 µM. As for `Cc1nn(-c2ccccc2)c(COc2ccccc2)c1C#N` [Example 8, 3-methyl-5-(phenoxymethyl)-1-phenyl-pyrazole-4-carbonitrile], the EC50 worked out at 1.52 µM. For the compound `Cc1nn(-c2ccccc2)c(COc2ccc(C#N)cc2F)c1C#N` [Example 10, 5-[(4-cyano-2-fluoro-phenoxy)methyl]-3-methyl-1-phenyl-pyrazole-4-carbonitrile], the EC50 was determined as 3.39 µM. Consider `Cc1nn(-c2ccccc2)c(COc2ccc(CO)c(F)c2F)c1C#N` [Example 14, 5-[[2,3-difluoro-4-(hydroxymethyl)phenoxy]methyl]-3-methyl-1-phenyl-pyrazole-4-carbonitrile], for which the concentration giving a half-maximal response (EC50) amounted to 3.09 µM. Then `Cc1cc(CO)ccc1OCc1c(C#N)c(C)nn1-c1ccccc1` [Example 16, 5-[[4-(hydroxymethyl)-2-methyl-phenoxy]methyl]-3-methyl-1-phenyl-pyrazole-4-carbonitrile], with 0.86 µM. For the compound `Cc1cc(CO)cc(C)c1OCc1c(C#N)c(C)nn1-c1ccccc1` [Example 17, 5-[[4-(hydroxymethyl)-2,6-dimethyl-phenoxy]methyl]-3-methyl-1-phenyl-pyrazole-4-carbonitrile], the EC50 was 1.01 µM. Then `Cc1nn(-c2ccccc2)c(COc2ccc(F)cc2)c1C#N` [Example 18, 5-[(4-fluorophenoxy)methyl]-3-methyl-1-phenyl-pyrazole-4-carbonitrile], with 1.41 µM; and `Cc1nn(-c2ccccc2)c(COc2ccc(CO)cc2F)c1C#N` [Example 20, 5-[[2-fluoro-4-(hydroxymethyl)phenoxy]methyl]-3-methyl-1-phenyl-pyrazole-4-carbonitrile], with 1.77 µM; and `Cc1nn(-c2ccccc2)c(COc2c(F)cc(CO)cc2F)c1C#N` [Example 21, 5-[[2,6-difluoro-4-(hydroxymethyl)phenoxy]methyl]-3-methyl-1-phenyl-pyrazole-4-carbonitrile], with 1.33 µM.

Take `Cc1nn(-c2ccccc2)c(COc2ccccc2CO)c1C#N` [Example 23, 5-[[2-(hydroxymethyl)phenoxy]methyl]-3-methyl-1-phenyl-pyrazole-4-carbonitrile]: the EC50 amounted to 8.13 µM. Regarding `Cc1nn(-c2ccccc2)c(COc2cccc(CO)c2)c1C#N` [Example 24, 5-[[3-(hydroxymethyl)phenoxy]methyl]-3-methyl-1-phenyl-pyrazole-4-carbonitrile], the EC50 is 7.31 µM.

In the case of `Cc1cccc(C)c1OCc1c(C#N)c(C)nn1-c1ccccc1` [Example 25, 5-[(2,6-dimethylphenoxy)methyl]-3-methyl-1-phenyl-pyrazole-4-carbonitrile], the 50% effective concentration (EC50) was 0.94 µM. The result for `Cc1ccccc1OCc1c(C#N)c(C)nn1-c1ccccc1` [Example 26, 3-methyl-5-[(2-methylphenoxy)methyl]-1-phenyl-pyrazole-4-carbonitrile] reads 0.58 µM.

In the case of `Cc1nn(-c2ccccc2)c(COc2ccc(CC#N)cc2)c1C#N` [Example 29, 5-[[4-(cyanomethyl)phenoxy]methyl]-3-methyl-1-phenyl-pyrazole-4-carbonitrile], the EC50 turned out to be 4.22 µM. With `Cc1cccc(OCc2c(C#N)c(C)nn2-c2ccccc2)c1C` [Example 30, 5-[(2,3-dimethylphenoxy)methyl]-3-methyl-1-phenyl-pyrazole-4-carbonitrile], the EC50 was 0.71 µM.

As for `Cc1nn(-c2ccccc2)c(COc2c(F)cc(CCCO)cc2F)c1C#N` [Example 32, 5-[[2,6-difluoro-4-(3-hydroxypropyl)phenoxy]methyl]-3-methyl-1-phenyl-pyrazole-4-carbonitrile], the EC50 is 0.09 µM. On to `Cc1nn(-c2ccccc2)c(COc2ccc(CCO)cc2F)c1C#N` [Example 33, 5-[[2-fluoro-4-(2-hydroxyethyl)phenoxy]methyl]-3-methyl-1-phenyl-pyrazole-4-carbonitrile], for which the EC50 was determined as 1.27 µM. Then `Cc1nn(-c2ccccc2)c(COc2ccc(CCCO)cc2)c1C#N` [Example 35, 5-[[4-(3-hydroxypropyl)phenoxy]methyl]-3-methyl-1-phenyl-pyrazole-4-carbonitrile], with 0.15 µM; and `CCc1ccccc1OCc1c(C#N)c(C)nn1-c1ccccc1` [Example 39, 5-[(2-ethylphenoxy)methyl]-3-methyl-1-phenyl-pyrazole-4-carbonitrile], with 7.24 µM. Regarding `Cc1nn(-c2ccccc2)c(COc2cccc(F)c2)c1C#N` [Example 40, 5-[(3-fluorophenoxy)methyl]-3-methyl-1-phenyl-pyrazole-4-carbonitrile], the concentration for a half-maximal effect (EC50) amounted to 0.79 µM. As for `Cc1nn(-c2ccccc2)c(COc2ccc(CCCO)cc2F)c1C#N` [Example 42, 5-[[2-fluoro-4-(3-hydroxypropyl)phenoxy]methyl]-3-methyl-1-phenyl-pyrazole-4-carbonitrile], the EC50 stood at 0.49 µM. In the case of `Cc1nn(-c2ccccc2)c(COc2ccc(CC(=O)NCCO)cc2)c1C#N` [Example 49, 2-[4-[(4-cyano-5-methyl-2-phenyl-pyrazol-3-yl)methoxy]phenyl]-~{N}-(2-hydroxyethyl)acetamide], the EC50 worked out at 18.4 µM.

For `COc1cc(CCCO)ccc1OCc1c(C#N)c(C)nn1-c1ccccc1` [Example 53, 5-[[4-(3-hydroxypropyl)-2-methoxy-phenoxy]methyl]-3-methyl-1-phenyl-pyrazole-4-carbonitrile], the EC50 worked out at 0.52 µM. Consider `Cc1nn(-c2ccccc2)c(COc2ccc(C(C)O)cc2)c1C#N` (centres unmarked) [Example 54, 5-[[4-(1-hydroxyethyl)phenoxy]methyl]-3-methyl-1-phenyl-pyrazole-4-carbonitrile], for which the EC50 is 18.4 µM.

Values taken from patent US11597702B2, “Substituted pyrazoles FFA4/GPR120 receptor agonists” (AXXAM S.P.A., priority 2018, dated 2023).
